Measured values taken from PubChem BioAssay (NCI).
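Tested at 5 concentrations; 48 h exposure; 96-well plates; endpoints linearly interpolated, else capped at highest concentration. TGI marks complete inhibition of growth.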

Experiments:
Assay in all cases: DTP human tumour cell line panel, 48 h
PC-3 prostate = test system: PC-3 prostate
HS 578T breast = test system: HS 578T breast
A549 NSCLC = test system: A549 NSCLC
SR leukemia = test system: SR leukemia
UACC-257 melanoma = test system: UACC-257 melanoma
HCC-2998 colon = test system: HCC-2998 colon
T-47D breast = test system: T-47D breast
OVCAR-4 ovarian = test system: OVCAR-4 ovarian
HOP-62 NSCLC = test system: HOP-62 NSCLC
MOLT-4 leukemia = test system: MOLT-4 leukemia

| SMILES | TGI (PC-3 prostate) | TGI (HS 578T breast) | TGI (A549 NSCLC) | TGI (SR leukemia) | TGI (UACC-257 melanoma) | TGI (HCC-2998 colon) | TGI (T-47D breast) | TGI (OVCAR-4 ovarian) | TGI (HOP-62 NSCLC) | TGI (MOLT-4 leukemia) |
| --- | --- | --- | --- | --- | --- | --- | --- | --- | --- | --- |
| O=C(c1cc(Cl)ccc1Cl)N1CCN(C(=O)c2cc(Cl)ccc2Cl)CC1 | > 100 µM | > 100 µM | > 100 µM | > 100 µM | > 100 µM | > 100 µM | > 100 µM | > 100 µM | > 100 µM | > 100 µM |
| O=C(Nc1ccccc1)N(CCCCN(Cc1ccccc1)C(=O)Nc1ccccc1)Cc1ccccc1 | > 100 µM | > 100 µM | > 100 µM | > 100 µM | > 100 µM | > 100 µM | > 100 µM | > 100 µM | > 100 µM | > 100 µM |
| COC1OC2COC1(OC)C1OC(C)(C)OC21 (stereo not drawn) | > 100 µM | > 100 µM | > 100 µM | > 100 µM | > 100 µM | > 100 µM | > 100 µM | > 100 µM | > 100 µM | > 100 µM |
| CCOC(=O)c1cc2c(C(=O)c3ccc([N+](=O)[O-])cc3)c(C(C)=O)ccc2[nH]1 | > 100 µM | 50.1 µM | > 100 µM | > 100 µM | > 100 µM | > 100 µM | > 100 µM | > 100 µM | 18.4 µM | > 100 µM |
| N#Cc1c(-c2ccc(Cl)cc2)c2c(n(C3OC(CO)C(O)C(O)C3O)c1=S)CCC2 (stereo not drawn) | > 100 µM | 84.3 µM | > 100 µM | > 100 µM | 87.2 µM | 42.1 µM | 45.8 µM | > 100 µM | 57 µM | 29 µM |
| COC(=O)C(Cc1ccccc1)NP(=O)(O)OCC1OC(n2cc(F)c(=O)[nH]c2=O)CC1O (stereo not drawn) | > 100 µM | > 100 µM | > 100 µM | > 56.5 µM | > 100 µM | > 100 µM | > 100 µM | > 100 µM | > 100 µM | > 93.9 µM |
| O=c1oc2ccccc2cc1-c1cn2cc(Cl)ccc2n1 | 16.4 µM | 8.19 µM | 16.8 µM | > 39.2 µM | > 45.9 µM | 21.7 µM | > 54.9 µM | 12.8 µM | 6.22 µM | > 36.1 µM |
| COc1ccc2nc3cc([N+](=O)[O-])ccc3c(Nc3ccc(S(=O)(=O)NC(C)=O)cc3)c2c1 | > 100 µM | > 100 µM | > 100 µM | 75.8 µM | > 100 µM | > 100 µM | > 100 µM | > 100 µM | > 100 µM | > 100 µM |
| COc1ccc2c(c1)c(CC(=O)O)c(C)n2C(=O)c1ccc(Cl)cc1 | > 100 µM | > 100 µM | > 100 µM | > 100 µM | > 100 µM | > 100 µM | > 100 µM | > 100 µM | > 100 µM | > 100 µM |
| O=C(OCCN=c1c2ccccc2ccc2ccccc12)c1ccc([N+](=O)[O-])cc1 | > 100 µM | > 100 µM | > 100 µM | > 100 µM | > 100 µM | > 100 µM | > 100 µM | > 100 µM | > 100 µM | > 100 µM |
| COC(=O)c1c(O)ccc2c1c1c(n2Cc2cccc(C)c2)C(=O)c2ccccc2C1=O | 23.5 µM | 34.9 µM | 20.3 µM | 21 µM | 31.2 µM | 6.36 µM | 12.4 µM | 20.1 µM | 31.3 µM | 17.5 µM |
| O=C1/C(=N\S(=O)(=O)c2ccccc2)C([n+]2ccc(Cc3ccccc3)cc2)=C([O-])c2ccccc21 | 9.39 µM | 6.09 µM | 3.74 µM | > 100 µM | 2.54 µM | 2.51 µM | 13 µM | 3.13 µM | 3.27 µM | 4.49 µM |
| O=C(Nc1nc2ccccc2s1)c1cc([N+](=O)[O-])ccc1Cl | > 70.3 µM | 15.7 µM | > 100 µM | > 100 µM | > 100 µM | 53.6 µM | > 100 µM | > 100 µM | > 100 µM | 9.93 µM |
| O=C1c2cc3c(cc2CC12Cc1ccc4c(c1C2=O)CCCC4)CCCC3 (stereo not drawn) | > 100 µM | > 100 µM | > 100 µM | > 100 µM | > 100 µM | > 100 µM | > 100 µM | 62.8 µM | > 100 µM | > 100 µM |
| CC1(C)CC(C)(C)C1=NNC(N)=O | > 100 µM | > 100 µM | > 100 µM | > 100 µM | > 100 µM | > 100 µM | > 100 µM | > 100 µM | > 100 µM | > 100 µM |
| OC(CCNCc1ccccc1)c1ccc2ccccc2c1 (stereo not drawn) | 47.4 µM | 47.7 µM | 36.3 µM | 98.3 µM | 32.2 µM | 62.8 µM | 49.9 µM | 72.9 µM | 33.5 µM | 84.8 µM |
| COc1cc(C2c3cc4c(cc3OC(NNC(N)=O)C2C)OCO4)cc(OC)c1O (stereo not drawn) | > 100 µM | > 100 µM | > 80.9 µM | > 100 µM | > 100 µM | 6.5 µM | > 100 µM | > 100 µM | > 100 µM | > 100 µM |
| COc1ccc(C)cc1Nc1nnc(-c2ccccc2N)s1 | > 100 µM | > 100 µM | > 100 µM | 46.7 µM | > 100 µM | > 100 µM | > 100 µM | > 100 µM | > 100 µM | 15 µM |

| SMILES | TGI (PC-3 prostate) | TGI (HS 578T breast) | TGI (A549 NSCLC) | TGI (SR leukemia) | TGI (UACC-257 melanoma) | TGI (HCC-2998 colon) | TGI (T-47D breast) | TGI (OVCAR-4 ovarian) | TGI (HOP-62 NSCLC) | TGI (MOLT-4 leukemia) |
| --- | --- | --- | --- | --- | --- | --- | --- | --- | --- | --- |
| C/C=C(/C)C(=O)O[C@H](C[C@@H](C)[C@H]1CC(c2ccoc2)OC1=O)[C@@]1(C)C(=O)CCC2O[C@]21C (stereo partly drawn) | > 100 µM | > 100 µM | > 100 µM | > 100 µM | > 100 µM | > 100 µM | > 100 µM | > 100 µM | – | > 100 µM |
| O=c1ccn(CC2(CO)CC(Cc3ccccc3)C2)c(=O)[nH]1 (stereo not drawn) | > 100 µM | > 100 µM | > 100 µM | > 100 µM | > 100 µM | > 100 µM | > 100 µM | > 100 µM | > 100 µM | > 100 µM |
| O=C(O)c1nc(-c2ccccc2)[nH]c1C(=O)O | 11.6 µM | > 61.2 µM | 29.3 µM | 2.36 µM | 30.3 µM | 12.8 µM | 33.1 µM | 32.1 µM | 32.6 µM | 9.64 µM |
| CCCCCCCCCCCCCCCCCCNc1ccn(C2OC(COP(=O)(O)OCC3OC(n4cc(F)c(NCCCCCCCCCCCCCCCCCC)nc4=O)CC3O)C(O)C2O)c(=O)n1 (stereo not drawn) | > 100 µM | > 100 µM | > 100 µM | > 100 µM | > 100 µM | > 100 µM | > 100 µM | > 100 µM | > 100 µM | > 100 µM |
| COC(=O)[C@H]1CO[C@H]2C/C(C)=C/CC/C(C)=C/CC[C@@]3(C)O[C@@H]3C[C@H]21 | > 50 µM | 36.5 µM | > 50 µM | 27.1 µM | > 50 µM | 17.9 µM | > 50 µM | > 50 µM | > 50 µM | 28.7 µM |
| CCNC(=O)c1cc(/C=C/c2ccc([N+](=O)[O-])o2)nc2ccccc12 | > 100 µM | > 100 µM | > 100 µM | > 100 µM | 28.2 µM | > 100 µM | > 100 µM | > 100 µM | > 100 µM | > 95.4 µM |
| C=C(CO[Si](C)(C)C(C)(C)C)C(C)=O | 98.5 µM | > 84.4 µM | > 100 µM | > 31.6 µM | 34.3 µM | 57.3 µM | 56.1 µM | 44.4 µM | > 100 µM | > 21.2 µM |
| C=C(C)C(O)C(O)c1c(OC)ccc2ccc(=O)oc12 (stereo not drawn) | > 100 µM | > 100 µM | > 100 µM | > 100 µM | > 100 µM | > 100 µM | > 100 µM | > 100 µM | > 100 µM | > 100 µM |
| Cc1c2c(n(CCc3ccc(Cl)cc3)c1C)NC(c1ccccc1)C(C#N)S2(=O)=O (stereo not drawn) | > 100 µM | > 79.5 µM | > 100 µM | 38.2 µM | > 100 µM | > 100 µM | > 100 µM | > 100 µM | > 100 µM | 11.6 µM |
| Cc1ccc2c(c1C)C(=O)/C(=C/c1ccccc1C(=O)O)C2 | > 100 µM | > 100 µM | > 100 µM | > 100 µM | > 100 µM | > 100 µM | > 100 µM | > 100 µM | > 100 µM | > 100 µM |
| C/C(Nc1ccc(F)cc1)=C1/CCOC1=O | > 100 µM | > 100 µM | > 100 µM | > 100 µM | > 100 µM | > 100 µM | > 100 µM | > 100 µM | > 100 µM | > 100 µM |
| Oc1c([Si](c2ccccc2)(c2ccccc2)c2ccccc2)cc2ccccc2c1-c1c(O)c([Si](c2ccccc2)(c2ccccc2)c2ccccc2)cc2ccccc12 | > 100 µM | > 100 µM | > 100 µM | > 100 µM | > 100 µM | > 100 µM | > 100 µM | > 100 µM | > 100 µM | > 100 µM |
| CCOP(=O)(OCC)C1CC(n2cc(C)c(=O)[nH]c2=O)OC1CO (stereo not drawn) | > 100 µM | > 100 µM | > 100 µM | > 100 µM | > 100 µM | > 100 µM | > 100 µM | > 100 µM | > 100 µM | > 100 µM |
| CCCC(=O)NC(Nc1ccc(S(=O)(=O)Nc2nc(C)cc(C)n2)cc1)(C(F)(F)F)C(F)(F)F | > 100 µM | > 100 µM | > 100 µM | > 100 µM | > 100 µM | > 100 µM | > 100 µM | > 100 µM | > 100 µM | > 100 µM |
| CC(C)(Oc1ccc(Cl)cc1)C(=O)N(C(=O)N1CCC(c2ccccc2)CC1)c1ccccc1 | > 100 µM | > 100 µM | > 100 µM | > 100 µM | > 100 µM | > 100 µM | > 30.3 µM | > 100 µM | > 100 µM | > 28.3 µM |
| CC1(C)C2C=CC1(C)C1(CC2)OCCO1 (stereo not drawn) | > 100 µM | > 100 µM | – | > 100 µM | > 100 µM | > 100 µM | > 100 µM | > 100 µM | > 100 µM | > 100 µM |
| CC(=O)Nc1ccc(OC2=CCN(C)CC2)cc1 | > 100 µM | > 100 µM | > 100 µM | > 100 µM | > 100 µM | > 100 µM | > 100 µM | > 100 µM | > 100 µM | > 100 µM |
